From patent US9040691B2, “Hydroxymethylaryl-substituted pyrrolotriazines as ALK1 inhibitors” (BAYER INTELLECTUAL PROPERTY GMBH, priority 2011, dated 2015)

Columns and labels:
ALK1 kinase [1] = target: T1, ALK1 kinase (Homo sapiens (Human), UniProt P37023); assay: In vitro enzyme inhibition using scintillation of incorporated radio label (flashplate assay); assay type: biochemical; details: biotinylated α-casein, 33P-ATP, 500 nM ATP
Procedure: B-1a. In Vitro Enzyme Inhibition Using Scintillation of Incorporated Radio Label (Flashplate Assay)
Test compounds diluted in DMSO are mixed with a suitable substrate/co-substrate (here: biotinylated α-casein and ^33P-ATP) in a corresponding assay buffer. Addition of the enzyme of interest (here: ALK1 kinase) starts the enzyme reaction. The enzyme-catalyzed incorporation of radio label into the substrate is measured via scintillation. Incorporated radio label is separated from free radio label via specific binding of the biotinylated substrate to strepavidin-coated microtiter plates (flashplates) and concomitant washing steps. The scintillation signal intensity (counts per minutes, cpm) is proportional to the enzyme activity. Enzyme inhibition results in a decreased signal intensity. IC50 values of the test compounds are determined by cpm-versus-[I] plots.
Reaction buffer contains 50 mM Tris pH 8.0 (Sigma), 1 mM MnCl2 (Sigma), 0.01% Nonidet P40 (Fluka), 0.5× Complete EDTA-free protease inhibitors (Roche; contains a mixture of several protease inhibitors for the inhibition of serine and cysteine (but not metallo-) proteases; 1 tablet contains protease inhibitors sufficient for a 50 ml cell extract; the concentration used in this assay corresponds to 1 tablet in 100 ml).
• 1.) Stop solution: Dulbecco's PBS (PAA, Pasching, Austria), 25 mM EDTA (Sigma), 25 μM ATP (Roche), 0.05% Triton X-100 (Sigma); • 2.) Saturation buffer: Dulbecco's PBS (PAA, Pasching, Austria), 100 μM ATP (Roche), 0.2% Triton X-100 (Sigma); • 3.) Wash buffer: Dulbecco's PBS (PAA, Pasching, Austria). Enzyme Solution:
ALK1 (Invitrogen, Paisley, United Kingdom) stock solution (35.7 ng/μl) is diluted to 4 ng/μl; final concentration in the reaction is 1 ng/μl.
Dephosphorylated α-casein (Sigma) is biotinylated according to the manufacturer's protocol (Pierce, Bonn, Germany) resulting in a stock solution of 61.6 μM. Briefly, EZ-Link® Biotin reagent (sulfosuccinimidyl-6-(biotinamido)hexanoate; Pierce, Bonn, Germany) is added in equal molarity to α-casein and incubated on ice for 2 h. Afterwards, the biotin reagent is removed by dialysis (2×2 h and overnight).
A 100 mM solution of cold (unlabelled) ATP (Roche) is diluted 1:100 before each test. For the substrate mix, α-casein is diluted to 2.22 μM resulting in a final concentration of 1 μM α-casein in the reaction. Additionally, cold ATP is added to give a 1.11 μM solution which results in a final concentration of 500 nM in the reaction.
Radioactive ATP Solution:
The stock solution (9.25 MBq/25 μl of ^33P-ATP; Perkin Elmer, Rodgau, Germany) is diluted to 651.2 Bq/μl.
Compounds are dissolved in 100% DMSO (10 mM stock solution) and diluted to 2 mM. Further dilutions are made stepwise 1:3.16 in DMSO.
A volume of 9 μl substrate solution is provided into each well of a 384 well microliter plate (Greiner Bio-One, Solingen, Germany), 1 μl compound solution and 5 μl of the radioactive ATP solution are added. Enzyme reaction starts with addition of 5 μl of enzyme solution. The mixture is incubated for 60 minutes at room temperature and then stopped by addition of 10 μl stop solution. The 384 well microliter flashplates (Perkin Elmer, Rodgau, Germany) are saturated with 50 μl saturation buffer per well for at least 60 minutes. Subsequently, a volume of 20 μl is discarded and replaced with 20 μl of the stopped ALK1 reaction mixture. Binding of biotinylated substrate to the flashplate is allowed for by overnight incubation at room temperature. Bound substrate is separated from unbound components through repeated washing steps (3×50 μl washing buffer per well). Finally, 50 μl washing buffer is added, and the scintillation signal (cpm) is measured in a suitable counter (Perkin Elmer, Rodgau, Germany).

ALK1 kinase [2] = target: T1, ALK1 kinase; assay: ALK1 kinase assay (ProQinase protocol); assay type: biochemical; details: ProQinase radiometric assay, casein, γ-33P-ATP
Procedure: B-1b. ALK1 Kinase Assay (ProQinase Protocol)
ALK1 (Invitrogen, Carlsbad, Calif., USA) kinase activity was measured at ProQinase GmbH (Freiburg, Germany) in a radiometric assay using γ-^33P-ATP and casein (Sigma, St. Louis, Mo., USA) as substrate in 96-well PerkinElmer FlashPlates™ (Boston, Mass., USA). The compounds were tested at 10 concentrations in the range of 1×10^−4 M to 3×10^−9 M in a total volume of 50 μl with a final DMSO concentration of 1% each. The assay components were mixed in the order: • 20 μl assay buffer (70 mM HEPES-NaOH, pH 7.5, 3 mM MgCl2, 3 mM MnCl2, 2 μM sodium orthovanadate, 1.2 mM DTT); • 5 μl γ-^33P-ATP (1.0 μM in water, approx. 6×10^5 cpm per well); • 5 μl test compound solution (in 10% DMSO); • […] (200 μg/ml, 1.0 μg/50 μl final concentration)/enzyme (4 μg/ml, 20 ng/50 μl=5.5 nM final concentration) solution (1:1 mixture).
The reaction mixtures were incubated at 30° C. for 60 minutes and stopped by adding 50 μl 2% (v/v) phosphoric acid. The plates were aspirated and washed twice with 200 μl 0.9% (w/v) sodium chloride. Incorporation of ^33Pi was determined with a microplate scintillation counter (Microbeta, Wallac). All assays were performed using a BecicmanCoulter/SAGIAN™ Core System.
Median values obtained from unspecific substrate binding of labelled. ATP were set as background level, while median values measured in the absence of any inhibitor were considered to reflect full activity of ALK1 kinase. The background activity (ba) was subtracted from the full activity (fa) value as well as from the values obtained from the test compound containing samples (test compound activity, tea). The residual activity in the latter was calculated as follows: residual activity (%)=100×[(tca−ba)/(fa−ba)]
The residual activities for each concentration and the compound IC50 values were calculated using Quattro Workflow V3.1.0 (Quattro Research GmbH, Munich, Germany). The fitting model for the IC50 determinations was “Sigmoidal response (variable slope)” with parameters “top” fixed at 100% and “bottom” at 0%. The fitting method used was a least-squares fit.

[3] = test system: hSmad7 mRNA in BMP9-stimulated HMVEC; assay: Smad7 target gene induction: HMVEC cell assay and TaqMan expression analysis; assay type: cell-based; details: Homo sapiens, hBMP9 stimulation, Smad7 mRNA by TaqMan
Procedure: B-2a. Smad7 Target Gene Induction: HMVEC Cell Assay and TaqMan Expression Analysis
Activation of ALK1 receptors by BMP9 induces the Smad1/5 signalling pathway and enhances expression of target genes Smad6, Smad7 and Id-1. Induction of Smad7-mRNA in BMP9-stimulated endothelial cells was determined to monitor the cellular potency of ALK1 kinase inhibitors.
Human microvascular endothelial cells (IIMVECadult, Cell Systems, St. Katharinen) were seeded in complete ENGS MV medium with all supplements (LifeLine Cell Technology) in 96 well plates with 10 000 cells per well. After 4 h incubation at 37° C. and 7.5% CO2 in a humidified incubator, medium was replaced with minimal medium (ENGS MV without supplements containing 0.02% FCS). After 16 h, test compounds or medium (controls) were added to the cultures, followed 30 min later by addition of hBMP9 (R&D Systems). Medium was removed 1 to 4 h later, plates were gently washed with phosphate-buffered saline, and cells were lysed with 150 μl per well of ice-cold RLT buffer (Qiagen).
Total cellular RNA was isolated with the Trizol® reagent protocol according to the manufacturer's specifications (Invitrogen, USA) and treated with DNAseI to remove genomic DNA contamination.
For relative quantitation of the mRNA distribution of hSmad7, total RNA from each sample was first reverse-transcribed using the ImProm-II Reverse Transcription System (Promega, USA) according to the manufacturer's protocol. The final volume was adjusted to 200 μl with water.
For relative quantitation of selected mRNA, the Applied Bioscience ABI 7900HT Sequence Detection System was used according to the manufacturer's specifications and protocols. PCR reactions were set up to quantitate hSmad7- and the housekeeping gene L32-mRNA. Forward and reverse primers and probes for hSmad7 and L32 were designed using the Applied Bioscience ABI Primer Expressim software and were synthesized by Eurogentec (Belgium). The hSmad7 forward primer sequence was: Primer 1 (SEQ ID NO 1). The hSmad7 reverse primer sequence was: Primer 2 (SEQ ID NO 2). Probe 1 (SEQ ID NO 3), labelled with FAM as the reporter dye and TAMRA as the quencher, was used as a probe for hSmad7. The L32 forward primer sequence was: Primer 3 (SEQ ID NO 4). The L32 reverse primer sequence was: Primer 4 (SEQ ID NO 5). Probe 2 (SEQ ID NO 6), labelled with FAM as the reporter dye and TAMRA as the quencher, was used as a probe for L32.
The following reagents were prepared in a total of 20 μl added per well: 1× qPCR-MasterMix (Eurogentec, Belgium) and hSmad7 forward and reverse primers each at 200 nM, 200 nM hSmad7 FAM/TAMRA-labelled probe 1 (SEQ ID NO 3), and 5 μl of template cDNA. Correspondingly, a second mix in a total of 20 μl was prepared using L32 FAM/TAMRA-labelled probe 2 (SEQ ID NO 6) and L32 forward and reverse primers added per well in parallel samples.
Thermal cycling parameters were 2 min at 50° C., followed by 10 min at 95° C., followed by 40 cycles of melting at 95° C. for 15 sec and annealing/extending at 60° C. for 1 min.
Calculation of Relative Expression:
The Ct (cycle threshold) values were calculated from the turning point of PCR product quantity curves by the ΔΔCt method (delta-delta Ct): ΔCt=CthSmad7−CtL32; relative expression=2^(15-ΔCt).
IC50 values of test compounds were calculated on basis of relative Smad7 expressions at different compound concentrations.

[4] = test system: hSmad7 mRNA in BMP9-stimulated HUVEC; assay: Smad7 target gene induction: HUVEC cell assay and TaqMan expression analysis; assay type: cell-based, human; details: Homo sapiens, 3 h, 1 ng/ml BMP9 for 3 h, Smad7 mRNA by TaqMan
Procedure: B-2b. Smad7 Target Gene Induction: HUVEC Cell Assay and TaqMan Expression Analysis
The in vitro potency of ALK1 inhibitors was tested in a cell-based assay. Bone morphogenetic protein 9 (BMP9) induces Smad7 mRNA expression in human vascular endothelial cells (HUVEC) via activation of ALK1.
1.5×10^4 passage 2 HUVECs (Lonza, Basel, Switzerland) per well were seeded in a 96-well plate in EBM-2 medium containing EGM-2 additives and growth factors (Lonza, CC-3156 and CC-4176). After 4 h, the medium was changed to EBM-2 with 0.2% fetal calf serum (FCS) and the cells were starved for 20 h in a humidified incubator at 37° C., 5% CO2. Test compounds were added at 11 different concentrations between 0 and 10 000 nM one hour prior to stimulation of the cells for 3 h with recombinant human BMP9 protein at 1 ng/ml (dissolved in 4 mM hydrochloric acid, 0.1% BSA at 10 μg/ml; R&D Systems, Minneapolis, Minn., USA, 3209BP). Medium was removed, and the cells were lysed in 100 μl RLT buffer (Qiagen, Hilden, Germany). RNA was isolated using the Qiagen RNeasy 96 Kit (order-No. 74182) according to manufacturer's instructions and eluted from the columns with 65 μl RNAse-free water. Reverse transcription for quantitative RT-PCR was carried out with the Omniscript Kit (Qiagen, 205113) in RNAse-free 96-well round-bottom plates. Per well, 6.8 μl of a reaction master mix containing 2 μl 10×RT-buffer, 2 μl dNTPs (5 mM each), 1.6 μl random primer N6 (125 μM), 0.25 μl Rnase Out (40 U/μl) and 1 μl Omniscript Reverse Transcriptase were added. After addition of 13.2 μl of the RNA/water mixture, plate contents were mixed, incubated for 1 h at 37° C. and the total volume adjusted to 100 μl in each well by addition of 80 μl RNAse-free water.
The quantification of human Smad7 mRNA was carried out on a TaqMan using the Eurogentec qPCR Mastermix Plus (RT-QP2X-03-075+; Cologne, Germany) and employing human L32 as housekeeping reference mRNA. Per qPCR reaction, 2.8 μl primer mix, 10 μl master mix, 2.2 μl water and 5 μl cDNA were added. Thermal cycling parameters were 2 min at 50° C., followed by 10 min at 95° C., followed by 40 cycles of melting at 95° C. for 15 sec and annealing/extending at 60° C. for 1 min.
Smad7 mRNA levels induced by 1 ng/ml BMP9 without the addition of any inhibitor were set at 100% induction, and % inhibition was calculated for each test compound with this value. For each test compound, every value was determined in quadruplicate. The IC50 values were determined using Microsoft Excel. The fitting method used was a weighted, unconstrained ML-fit.

T1 sequence (P37023 22-503): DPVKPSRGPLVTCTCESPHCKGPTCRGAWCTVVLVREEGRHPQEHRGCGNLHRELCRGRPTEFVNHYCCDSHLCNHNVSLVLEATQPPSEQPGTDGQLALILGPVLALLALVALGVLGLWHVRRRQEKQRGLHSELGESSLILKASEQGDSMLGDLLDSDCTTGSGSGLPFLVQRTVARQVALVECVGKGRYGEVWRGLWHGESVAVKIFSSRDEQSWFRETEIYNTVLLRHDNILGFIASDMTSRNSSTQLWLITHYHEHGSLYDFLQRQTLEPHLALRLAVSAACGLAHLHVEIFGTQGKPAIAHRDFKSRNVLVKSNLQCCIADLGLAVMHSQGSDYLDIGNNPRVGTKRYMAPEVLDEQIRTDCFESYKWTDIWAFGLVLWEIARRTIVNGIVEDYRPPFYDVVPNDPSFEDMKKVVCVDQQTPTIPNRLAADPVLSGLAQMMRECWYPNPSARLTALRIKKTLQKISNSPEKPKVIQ

| Structure (SMILES) | IC50 (ALK1 kinase [1]) [nM] | IC50 (ALK1 kinase [2]) [nM] | IC50 [3] [nM] | IC50 [4] [nM] |
| --- | --- | --- | --- | --- |
| CCc1cc(-c2cc([C@H]3CC[C@H](O)CC3)n3ncnc(N)c23)cc(F)c1CO [Example 28, trans-4-{4-Amino-5-[3-ethyl-5-fluoro-4-(hydroxymethyl)phenyl]pyrrolo[2,1-f][1,2,4]triazin-7-yl}-cyclohexanol] | 170 | 124 | – | – |
| Nc1ncnn2c(C3CCNC3)cc(-c3cc(F)c(CO)c(F)c3)c12 (racemic) [Example 8, rac-{4-[4-Amino-7-(pyrrolidin-3-yl)pyrrolo[2,1-f][1,2,4]triazin-5-yl]-2,6-difluorophenyl}methanol] | – | – | 60 | – |
| CCc1cc(-c2cc(C3CCNC3)n3ncnc(N)c23)cc(F)c1CO (racemic) [Example 37, rac-{4-[4-Amino-7-(pyrrolidin-3-yl)pyrrolo[2,1-f][1,2,4]triazin-5-yl]-2-ethyl-6-fluorophenyl}-methanol] | – | < 3 | – | 330 |
| CCc1cc(-c2cc(C3CCCNC3)n3ncnc(N)c23)cc(F)c1CO (racemic) [Example 38, rac-{4-[4-Amino-7-(piperidin-3-yl)pyrrolo[2,1-f][1,2,4]triazin-5-yl]-2-ethyl-6-fluorophenyl}-methanol] | – | 4 | – | – |
